Patent US20150315188A1, “COMPOUNDS AND METHODS FOR TREATMENT OF HYPERTENSION” (MEDIVATION TECHNOLOGIES, INC., priority 2012, published 2015)
“And” between values parts separate entries of the source, which are not always exact repeats. Equal values may be shown once.

What was measured:
Design in all cases: purchased Milipore (Millipore)
[1] = target: T1, Human adrenergic α1B receptor (Homo sapiens, UniProt P35368); experiment: Radioligand binding, adrenergic α1B (Protocol Group B); details: Protocol Group B; for Percentage inhibition of ligand binding, Adrenergic α1B (0.1 μM) / inhibition at 0.1 µM: 0.1 μM compound; for Percentage inhibition of ligand binding, Adrenergic α1B (0.3 μM) / inhibition at 0.3 µM: 0.3 μM compound; for inhibition at 0.1 µM: read-out: Percentage inhibition of ligand binding, Adrenergic α1B (0.1 μM); for inhibition at 0.3 µM: read-out: Percentage inhibition of ligand binding, Adrenergic α1B (0.3 μM)
T1 sequence (P35368 1-520): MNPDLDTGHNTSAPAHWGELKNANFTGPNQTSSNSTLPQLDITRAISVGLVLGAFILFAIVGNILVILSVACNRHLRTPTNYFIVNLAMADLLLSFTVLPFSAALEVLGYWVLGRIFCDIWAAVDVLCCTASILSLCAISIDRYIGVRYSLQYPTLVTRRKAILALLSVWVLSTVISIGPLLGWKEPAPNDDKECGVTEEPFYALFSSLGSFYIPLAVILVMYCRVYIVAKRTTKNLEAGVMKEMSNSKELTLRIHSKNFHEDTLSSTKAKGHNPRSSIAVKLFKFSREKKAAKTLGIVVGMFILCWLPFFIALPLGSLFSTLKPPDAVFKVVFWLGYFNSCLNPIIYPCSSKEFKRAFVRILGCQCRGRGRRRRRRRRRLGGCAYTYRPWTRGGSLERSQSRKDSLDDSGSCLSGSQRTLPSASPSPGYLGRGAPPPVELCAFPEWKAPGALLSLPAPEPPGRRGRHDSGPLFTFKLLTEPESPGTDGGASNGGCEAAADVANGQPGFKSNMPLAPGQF
Procedure: To evaluate the activity of compounds in radioligand binding assays, Human adrenergic α1B receptor obtained from recombinant cell membrane from Milipore. Binding experiments were carried out in Tris-HCl buffer (50 mM Tris-HCl buffer, pH 7.4, 10 mM Mgcl2, 1 mM EDTA) as recommended by Milipore. Compounds were incubated with 0.3 nM [^3H]Prazosin for 60 min at 25° C. Non-specific binding was estimated in the presence of 10 μM prazosin. Receptor proteins were harvested on 0.33% PEI(poly-ethylenemine) soaked GFC filter mat, the specifically bound [^3H]Prazosin were counted to determine total binding. Compounds were screened at various concentrations, using 1% DMSO as vehicle. percent inhibition of specific binding was determined. Biochemical assay results are presented as the percent Inhibition of specific binding in Table B1b, or estimated Ki values in Table B1c.

[2] = target: T2, Human adrenergic α2B receptor (Homo sapiens, UniProt P18089); experiment: Radioligand binding, adrenergic α2B (Protocol Group B); details: Protocol Group B; for Percentage inhibition of ligand binding, Adrenergic α2B (10 nM) / inhibition at 0.01 µM: 10 nM compound; for Percentage inhibition of ligand binding, Adrenergic α2B (10 nM): 0.01 µM; for Percentage inhibition of ligand binding, Adrenergic α2B (30 nM) / inhibition at 0.03 µM: 30 nM compound; for Percentage inhibition of ligand binding, Adrenergic α2B (30 nM): 0.03 µM; for Percentage inhibition of ligand binding, Adrenergic α2B (0.1 μM) / inhibition at 0.1 µM: 0.1 μM compound; for inhibition at 0.01 µM: read-out: Percentage inhibition of ligand binding, Adrenergic α2B (10 nM); for inhibition at 0.03 µM: read-out: Percentage inhibition of ligand binding, Adrenergic α2B (30 nM); for inhibition at 0.1 µM: read-out: Percentage inhibition of ligand binding, Adrenergic α2B (0.1 μM)
T2 sequence (P18089 1-450): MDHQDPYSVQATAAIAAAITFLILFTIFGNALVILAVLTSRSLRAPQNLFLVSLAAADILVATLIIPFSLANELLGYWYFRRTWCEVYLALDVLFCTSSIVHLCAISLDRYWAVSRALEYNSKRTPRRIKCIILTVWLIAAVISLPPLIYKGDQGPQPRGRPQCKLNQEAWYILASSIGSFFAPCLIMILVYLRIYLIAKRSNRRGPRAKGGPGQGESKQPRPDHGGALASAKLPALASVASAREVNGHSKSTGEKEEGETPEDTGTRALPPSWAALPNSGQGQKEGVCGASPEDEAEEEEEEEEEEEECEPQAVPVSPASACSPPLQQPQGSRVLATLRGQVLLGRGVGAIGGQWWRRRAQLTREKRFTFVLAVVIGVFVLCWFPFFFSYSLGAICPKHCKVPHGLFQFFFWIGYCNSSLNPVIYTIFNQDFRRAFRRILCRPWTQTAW
Procedure: To evaluate the activity of compounds in radioligand binding assays, Human adrenergic α2B receptor obtained from recombinant cell membrane from Milipore. Binding experiments were carried out in Tris-HCl buffer (50 mM Tris-HCl buffer, pH 7.4, 5 mM Mgcl2, 1 mM Cacl2, 0.2% BSA) as recommended by Milipore. […] Non-specific binding was estimated in the presence of 10 μM Rauwolscine. […] Compounds were screened at various concentrations, using 1% DMSO as vehicle. Biochemical assay results are presented as the percent Inhibition of specific binding in Table B1b, or estimated Ki values in Table B1c.

[3] = target: T3, Human adrenergic α2A receptor (Homo sapiens, UniProt P08913); experiment: Radioligand binding, adrenergic α2A (Protocol Group B); details: Protocol Group B; for Percentage inhibition of ligand binding, Adrenergic α2A (0.1 μM) / inhibition at 0.1 µM: 0.1 μM compound; for Percentage inhibition of ligand binding, Adrenergic α2A (0.3 μM) / inhibition at 0.3 µM: 0.3 μM compound; for inhibition at 0.1 µM: read-out: Percentage inhibition of ligand binding, Adrenergic α2A (0.1 μM); for inhibition at 0.3 µM: read-out: Percentage inhibition of ligand binding, Adrenergic α2A (0.3 μM)
T3 sequence (P08913 1-465): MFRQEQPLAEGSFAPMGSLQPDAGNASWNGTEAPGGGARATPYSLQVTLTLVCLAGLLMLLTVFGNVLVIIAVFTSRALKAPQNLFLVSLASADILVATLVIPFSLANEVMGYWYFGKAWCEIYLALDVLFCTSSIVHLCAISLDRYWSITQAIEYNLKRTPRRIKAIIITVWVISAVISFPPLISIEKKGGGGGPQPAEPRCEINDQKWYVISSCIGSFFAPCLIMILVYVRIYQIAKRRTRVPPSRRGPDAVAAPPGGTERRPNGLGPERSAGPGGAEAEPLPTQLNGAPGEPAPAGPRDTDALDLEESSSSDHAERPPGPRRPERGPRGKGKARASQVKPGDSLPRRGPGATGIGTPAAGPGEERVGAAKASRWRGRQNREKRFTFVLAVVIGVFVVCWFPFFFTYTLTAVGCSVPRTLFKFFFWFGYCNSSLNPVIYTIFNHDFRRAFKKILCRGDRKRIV
Procedure: To evaluate the activity of compounds in radioligand binding assays, Human adrenergic α2A receptor obtained from recombinant cell membrane from Milipore. Binding experiments were carried out in Tris-HCl buffer (50 mM Tris-HCl buffer, pH 7.4, 5 mM Mgcl2, 1 mM Cacl2, 0.2% BSA) as recommended by Milipore. Compounds were incubated with 2 nM [^3H]MK-912 for 60 min at 25° C. Non-specific binding was estimated in the presence of 10 μM Rauwolscine. Receptor proteins were harvested on 0.33% PEI(poly-ethylenemine) soaked GFC filter mat, the specifically bound [^3H]MK-912 were counted to determine total binding. Compounds were screened at various concentrations, using 1% DMSO as vehicle. percent inhibition of specific binding was determined. Biochemical assay results are presented as the percent Inhibition of specific binding in Table B1b, or estimated Ki values in Table B1c.

| Percentage inhibition of ligand binding, Adrenergic α1B (0.1 μM) [1] | Percentage inhibition of ligand binding, Adrenergic α1B (0.3 μM) [1] | Percentage inhibition of ligand binding, Adrenergic α2B (10 nM) [2] | Percentage inhibition of ligand binding, Adrenergic α2B (30 nM) [2] | Percentage inhibition of ligand binding, Adrenergic α2B (0.1 μM) [2] | Percentage inhibition of ligand binding, Adrenergic α2A (0.1 μM) [3] | Percentage inhibition of ligand binding, Adrenergic α2A (0.3 μM) [3] | inhibition at 0.1 µM [1] | inhibition at 0.3 µM [1] | inhibition at 0.01 µM [2] | inhibition at 0.03 µM [2] | inhibition at 0.1 µM [2] | inhibition at 0.1 µM [3] | inhibition at 0.3 µM [3] | SMILES |
| --- | --- | --- | --- | --- | --- | --- | --- | --- | --- | --- | --- | --- | --- | --- |
| 14% | 21% | −2% | 11% | 30% | −2% | 11% |  |  |  |  |  |  |  | Cc1ccc2c(c1)c1c(n2CC(C)(O)c2cccnc2)CC2CCCN2C1 (stereo not shown) [38a] |
| 15% | 37% | 19% | 46% | 73% | −2% | 14% |  |  |  |  |  |  |  | Cc1ccc2c(c1)c1c(n2CC(C)(O)c2ccncc2)CC2CCCN2C1 (single isomer, unassigned) [37c] |
| 57% |  |  | 92% |  | 81% |  |  |  |  |  |  |  |  | Cc1cc(C)c2c(c1)c1c(n2CC(O)C2CCCCC2)CCN2CCCC12 (stereo not shown) [141b] |
|  |  |  |  |  |  |  | 12% | 38% | 17% | 48% | 74% | 1% | 9% | Cc1ccc2c(c1)c1c(n2CC(C)(O)c2ccc(OCC3CC3)nc2)CCN(C)C1 (stereo not shown) [compound 56, 2-(6-(cyclopropylmethoxy)pyridin-3-yl)-1-(2,8-dimethyl-3,4-dihydro-1H-pyrido[4,3-b]indol-5(2H)-yl)propan-2-ol] |
| −9% |  |  | −12% |  | −5% |  |  |  |  |  |  |  |  | CN1CCc2c(c3cc(CCO)ccc3n2CC(O)c2ccncc2)C1 (single isomer, unassigned) [140a] |
| 6% | 22% | 14% | 2% | 25% | −2% | −1% |  |  |  |  |  |  |  | Cc1ccc2c(c1)c1c(n2CC(O)c2ccncc2)CNC2CCCC12 (single isomer, unassigned) [34d] |
| −1% | 1% | −6% | −3% | 22% | 0% | 13% |  |  |  |  |  |  |  | CC(O)(Cn1c2c(c3cc(Cl)cc(F)c31)CN1CCCC1C2)c1cccnc1 (single isomer, unassigned) [63b] |
| 1% |  |  | 3% |  | 0% |  |  |  |  |  |  |  |  | CN1CCc2c(c3cc(CCO)ccc3n2CC(C)(O)c2cccnc2)C1 (single isomer, unassigned) [139b] |
| 2% | 24% | 25% | 55% | 84% | 3% | 32% |  |  |  |  |  |  |  | CC(O)(Cn1c2c(c3cc(Cl)cc(F)c31)CN1CCCC1C2)c1cccnc1 (single isomer, unassigned) [63a] |
|  |  |  |  |  |  |  | 10% | 15% | 6% | 35% | 54% | 12% | 23% | CN1CCc2c(c3cccc(Cl)c3n2CC(O)c2cccnc2)C1 (stereo not shown) [compound 20, 2-(6-chloro-2-methyl-3,4-dihydro-1H-pyrido[4,3-b]indol-5-(2H)-yl)-1-(pyridin-3-yl)ethanol] |
| −2% | −3% | 24% | 51% | 80% | −7% | 6% |  |  |  |  |  |  |  | Cc1ccc2c(c1)c1c(n2CC(C)(O)c2cccnc2)CC2CCCN2C1 (stereo not shown) [41a] |
| −2% | −1% | 9% | 21% | 48% | −7% | 13% |  |  |  |  |  |  |  | Cc1ccc2c(c1)c1c(n2CC(C)(O)c2cccnc2)CC2CCCN2C1 (stereo not shown) [41d] |
| 15% | 24% | 11% | 32% and 36% | 79% | 8% | 20% |  |  |  |  |  |  |  | OC(Cn1c2c(c3cc(F)ccc31)C1CCCN1CC2)c1ccncc1 (single isomer, unassigned) [18d] |
